pEC50: −log10 of the molar value. Values after ≈ are worked out from the molar mass of the structure shown. Values joined by “and” are separate entries in the source; they are usually repeats but may differ in a detail not shown here. Identical values can stand only once.
What was measured:
[1] = molecular target: T1, Recombinant human soluble guanylate cyclase (sGC) (Homo sapiens, UniProt Q02153); assay: Molecular assay: activation of heme-free sGC, cGMP detection (CisBio kit); assay type: biochemical; conditions: 300 pM heme-free sGC, 37° C., 60 minutes, cGMP formation
T1 construct: histidine tag (C); made in house; host or cells: Sf9 insect cells (baculovirus coinfection)
T1 sequence (Q02108 whole entry partner): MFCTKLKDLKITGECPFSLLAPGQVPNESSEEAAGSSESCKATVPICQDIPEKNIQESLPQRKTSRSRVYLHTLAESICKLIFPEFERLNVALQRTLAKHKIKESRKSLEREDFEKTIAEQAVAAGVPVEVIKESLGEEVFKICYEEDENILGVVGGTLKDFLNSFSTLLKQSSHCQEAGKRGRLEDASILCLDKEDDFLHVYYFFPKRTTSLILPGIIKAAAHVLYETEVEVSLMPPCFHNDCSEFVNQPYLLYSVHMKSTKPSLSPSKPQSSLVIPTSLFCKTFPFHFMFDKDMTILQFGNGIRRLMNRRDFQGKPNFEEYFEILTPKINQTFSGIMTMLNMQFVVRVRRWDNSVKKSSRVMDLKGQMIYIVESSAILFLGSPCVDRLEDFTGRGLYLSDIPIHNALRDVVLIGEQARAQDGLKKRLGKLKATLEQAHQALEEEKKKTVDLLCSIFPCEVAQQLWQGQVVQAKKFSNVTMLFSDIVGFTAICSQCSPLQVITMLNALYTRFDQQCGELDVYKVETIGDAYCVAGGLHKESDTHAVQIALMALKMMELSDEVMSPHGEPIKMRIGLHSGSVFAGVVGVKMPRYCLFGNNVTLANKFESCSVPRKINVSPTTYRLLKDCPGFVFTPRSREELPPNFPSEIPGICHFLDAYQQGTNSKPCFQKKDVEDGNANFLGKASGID
T1 sequence (Q02153 whole entry): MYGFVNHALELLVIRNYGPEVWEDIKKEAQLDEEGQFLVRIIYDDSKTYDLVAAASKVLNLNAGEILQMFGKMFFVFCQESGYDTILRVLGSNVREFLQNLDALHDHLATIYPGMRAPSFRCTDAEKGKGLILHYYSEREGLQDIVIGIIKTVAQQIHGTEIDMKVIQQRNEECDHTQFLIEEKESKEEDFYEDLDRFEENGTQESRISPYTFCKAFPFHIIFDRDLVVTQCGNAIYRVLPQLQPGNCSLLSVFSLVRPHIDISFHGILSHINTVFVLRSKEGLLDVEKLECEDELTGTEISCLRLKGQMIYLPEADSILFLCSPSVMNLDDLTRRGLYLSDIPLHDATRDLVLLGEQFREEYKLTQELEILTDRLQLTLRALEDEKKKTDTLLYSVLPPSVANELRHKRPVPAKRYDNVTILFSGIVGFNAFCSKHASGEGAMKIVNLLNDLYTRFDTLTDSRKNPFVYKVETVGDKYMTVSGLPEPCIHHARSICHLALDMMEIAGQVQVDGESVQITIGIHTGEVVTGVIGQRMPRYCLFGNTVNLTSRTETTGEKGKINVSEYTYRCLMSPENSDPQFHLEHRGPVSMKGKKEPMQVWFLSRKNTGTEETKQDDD
Protocol: The compounds of the invention may be evaluated in the following molecular assay:
Recombinant human soluble guanylate cyclase (sGC) is purified from Sf9 insect cells coinfected with baculoviruses expressing the alpha 1 or beta 1 subunit of sGC, both with a C-terminal histidine tag. Heme-free sGC is prepared by treating cell lysate with a final concentration of 0.5% Tween 20 prior to purification on a nickel affinity column.
sGC catalyzes the conversion of guanosine-5′-triphosphate (GTP) to cyclic guanosine monophosphate (cGMP). The activity of sGC is measured in vitro using the commercially available CisBio cGMP detection kit (catalog #62GM2PEB) in a 384 well format. In brief, 300 pM heme-free sGC is incubated in reaction buffer (50 mM MOPS pH 6.8, 0.2 N KOH, 50 mM NaCl, 2 mM MgCl2, 0.1% BSA, 1.25 mM IBMX, 0.25 mM TCEP, 50 nM GTP) in the presence or absence of dilutions of test compounds diluted in DMSO (final concentration of 1%) in a volume of 10 microL at 37° C. for 60 minutes. Undiluted reaction products or an 80-fold dilution of reaction products (10 microL of either) prepared in reaction buffer containing 0.2 mM TCEP and 10 mM EDTA is mixed with 5 microL of d2-cGMP plus 5 microL of Eu^3+cryptate-labeled anti-cGMP, each diluted in buffer containing 0.1 M KPO4 pH 7.5, 0.4 M KF, 20 mM EDTA, 0.2% BSA. After a one hour incubation at room temperature in the dark, the mixtures are quantified on an EnVision plate reader (PerkinElmer) according to manufacturer instructions (laser excitation 337 nm, emission 620 and 665 nm). The ratio at each compound concentration is converted to nM cGMP using the linear portion of a calibration curve. Log compound concentration is plotted against combined undiluted and diluted nM cGMP values to determine the EC50 for each curve.
Representative compounds of the present invention were tested for activity in the above assay. Preferred compounds have an IC50<5,000 nM and more preferred compounds have an IC50<100 nM in this assay.

[2] = Assessment of solubility (HT solubility, pION, UV); assay type: physicochemical; conditions: incubated 16-19 hours, 1.0% DMSO, 100 uM; for solubility kinetic: pH 4.5 buffer (pION system solution), pH 4.5, aqueous buffer, kinetic from dmso stock, read-out: Sol pH 4.5; for Sol pH 7.4: pH 7.4 buffer
Protocol: Solubility is measured by the following method.
DMSO stock samples at 10 mM conc are prepared. […] The samples are pierced and 100 ul of thawed samples are transferred into the PCR plate for analysis. Each sample is run in duplicate at each pH (pH 4.5 and 7.4). Up to 95 samples can be run in replicate at 2 pH's+1 DMSO (blank).
2. Preparation of pH 4.5 and 7.4 buffers:
pH 4.5 buffer: To 12.5 of system solution (pION) qs to 500 mL of distilled water (pH 2.85-2.90); adjust the pH to pH 4.5 with 0.5 N NaOH.
pH 7.4 buffer: To 12.5 of system solution (pION) qs to 500 mL of distilled water (pH 2.85-2.90); adjust the pH to pH 7.4 with 0.5N NaOH.
Preparation of UV blank plate:
75 ul of buffer (pH 7.4 or pH 4.5) is added to UV plate followed by addition of […] of N-propanol. The solution is mixed and the blank spectrum is read using spectrophotometer.
Preparation of Reference UV plate:
10 ul of each stock sample (including DMSO control) is added to 190 ul of N-propanol to prepare the reference stock plate. Reference stock samples are mixed and 5 ul of each stock sample is added to UV blank plate after it is read spectrophotometrically. The reference stock sample is mixed with blank solution in UV plate and the reference spectrum is read using UV spectrophotometer.
Preparation of sample for incubation:
Solubility at pH 7.4: 6 ul of each stock sample (including DMSO control) is added to the storage plate containing 600 ul of pH 7.4 buffer, mixed and incubated for 16-19 hours. The plate is sealed well during the incubation process. The DMSO content in the sample is 1.0%. The concn in deep well plates is 100 uM
6 ul of each stock sample (including DMSO control) is added to the deep well plate containing 600 ul of pH 4.5 buffer, mixed and incubated for 16-19 hours. The plate is sealed well during the incubation process. The DMSO content in the sample is 1.0%. The concn in deep well plates is 100 uM
Preparation of sample UV plate:
At the end of the incubation period, 100 uL of sample from the storage plate is vacuum filtered using a filter plate. This step wets the filters and the filtrate is discarded. Another 200 ul of the sample from the deep well plate is vacuum filtered using the same filter block but a clean filter plate. 75 ul of the filtrate from the filter plate is transferred to a UV sample plate. 75 ul of N-propanol is added to this UV plate. The solution is mixed and the spectrum is read using the UV spectrophotometer.
The spectra collected for blank, reference and sample from 250-498 nm is analyzed using pION software. If the sample precipitates out, the solubility is reported as XX μg/ml. If there is no precipitation and the sample is soluble, solubility is reported as […] (YY being the initial concentration of the compound in the sample).

| SMILES | pEC50 [1] | solubility kinetic ([2]; pH 4.5 buffer) [µg/mL] | Sol pH 4.5 ([2]; pH 4.5 buffer) [μg/mL] | Sol pH 7.4 [2] |
| --- | --- | --- | --- | --- |
| Cc1ccc(OCc2ccc3c(c2)CCN(C2CCOCC2)C3)c(-c2cccc(-n3ncc(C(=O)O)c3C(F)(F)F)n2)c1 [Compound 34] | 8.10 | 41.5 (≈ 70 µM) |  | 41.8 μg/mL |
| Cc1cc(CN2CCc3cc(COc4c(C)cccc4-c4cccc(-c5ncc(C(=O)O)n5C)n4)ccc3C2)no1 [Compound 72] | 7.57 | > 67 |  | >67 μg/mL |
| Cc1ccc(OCc2ccc3c(c2)CCN(Cc2cc(C)on2)C3)c(-c2cccc(-n3ncc(C(=O)O)c3C(F)(F)F)n2)c1 [Compound 31] | 8.70 | 22 (≈ 36.4 µM) |  | >60 μg/mL |
| Cc1cccc(-c2cccc(-c3c(C)c(C(=O)O)nn3C3CCOCC3)n2)c1OCc1ccc2c(c1)CCN(C1CCOCC1)C2 [Compound 89] | 6.15 | 51.5 (≈ 82.7 µM) |  | >62 μg/mL |
| Cc1ncc(CN2CCc3cc(COc4c(C)cccc4-c4cccc(-c5ncc(C(=O)O)n5C)n4)ccc3C2)s1 [Compound 70] | 7.43 | > 66 |  | >66 μg/mL |
| Cc1cccc(-c2cccc(-c3csc(C(=O)O)c3C)n2)c1OCc1ccc2c(c1)CCN(C1CCOCC1)C2 [Compound 60] | 7.72 | > 64 |  | >64 μg/mL |
| Cc1ccc(OCc2ccc3c(c2)CCN(S(=O)(=O)CC(=O)O)C3)c(-c2cccc(-n3ncc(C(=O)O)c3C(F)(F)F)n2)c1 [Compound 1] | 6.83 | > 62 |  | >62 μg/mL |
| Cc1cccc(-c2cccc(-c3c(C)c(C(=O)O)nn3C3CC3)n2)c1OCc1ccc2c(c1)CCN(C1CCOCC1)C2 [Compound 91] | 6.80 | > 69 |  | >69 μg/mL |
| CCn1cc(CN2CCc3cc(COc4c(C)cccc4-c4cccc(-c5ncc(C(=O)O)n5C)n4)ccc3C2)cn1 [Compound 71] | 6.80 | > 67 |  | >67 μg/mL |
| Cc1ccc(OCc2ccc3c(c2)CCN(CCc2ccccc2)C3)c(-c2cccc(-n3ncc(C(=O)O)c3C(F)(F)F)n2)c1 [Compound 20] | 8.40 | 7.8 (≈ 12.7 µM) |  | 10.7 μg/mL |
| Cc1cccc(-c2cccc(-c3c(C)c(C(=O)O)nn3C(C)C)n2)c1OCc1ccc2c(c1)CCN(C1CCOCC1)C2 [Compound 83] | 7.30 | > 69 |  | >69 μg/mL |
| Cc1ccc(OCc2ccc3c(c2)CCN(C(C)c2cnccn2)C3)c(-c2cccc(-n3ncc(C(=O)O)c3C(F)(F)F)n2)c1 (stereo not shown) [Compound 28] | 8.05 | > 61 |  | >61 μg/mL |
| Cc1ccc(OCc2ccc3c(c2C)CCN(C2CCOC2)C3)c(-c2cccc(-c3ncc(C(=O)O)n3C)n2)c1 (stereo not shown) [Compound 54] | 6.78 | > 76 |  | 32.6 μg/mL |
| Cc1ccc(OCc2ccc3c(c2)CCN(C2CCC2)C3)c(-c2cccc(-n3ncc(C(=O)O)c3C(F)(F)F)n2)c1 [Compound 16] | 7.48 | > 67 |  | >67 μg/mL |

More lines, in order of rising pEC50 [1], values ahead:

| pEC50 [1] | solubility kinetic ([2]; pH 4.5 buffer) [µg/mL] | Sol pH 4.5 ([2]; pH 4.5 buffer) [μg/mL] | Sol pH 7.4 [2] | SMILES |
| --- | --- | --- | --- | --- |
| 5.59 | > 78 |  | >78 μg/mL | Cc1ccc(OCc2ccc3c(c2)CCN(C2CCOCC2)C3)c(-c2cccc(-n3cnc(C(=O)O)c3C)n2)c1 [Compound 58] |
| 6.19 | 5.1 (≈ 10.6 µM) |  | 1.9 μg/mL | Cc1ccc(OCc2ccc3c(c2C)CCN(C)C3)c(-c2cccc(-c3ncc(C(=O)O)n3C)n2)c1 [Compound 48, 2-{6-[2-(2,5-dimethyl-1,2,3,4-tetrahydroisoquinolin-6-ylmethoxy)-5-methylphenyl]pyridin-2-yl}-3-methyl-3H-imidazole-4-carboxylic acid] |
| 6.36 | 2.8 (≈ 5.22 µM) |  | 1.2 μg/mL | Cc1ccc(OCc2cc3c(cc2C)CN(C)CC3)c(-c2cccc(-n3ncc(C(=O)O)c3C(F)(F)F)n2)c1 [Compound 62, 1-[6-[2-[(2,7-dimethyl-3,4-dihydro-1H-isoquinolin-6-yl)methoxy]-5-methylphenyl]-2-pyridyl]-5-(trifluoromethyl)pyrazole-4-carboxylic acid] |
| 6.42 | 13.7 (≈ 23.5 µM) |  | 13.4 μg/mL | Cc1ccc(OCc2ccc3c(c2)CCN(Cc2nc(C)cs2)C3)c(-c2cccc(-c3csc(C(=O)O)c3C)n2)c1 [Compound 50] |
| 6.47 | 44.7 (≈ 80.6 µM) |  | 35.9 μg/mL | Cc1ccc(OCc2ccc3c(c2)CCN(CC2CCOC2)C3)c(-c2cccc(-c3csc(C(=O)O)c3C)n2)c1 (stereo not shown) [Compound 51] |
| 6.63 | > 78 |  | 54.2 μg/mL | Cc1cccc(-c2cccc(-c3ncc(C(=O)O)n3C)n2)c1OCc1ccc2c(c1)CCN(C1CCOCC1)C2 [Compound 67] |
| 6.70 | 14.1 (≈ 29.1 µM) |  | 27.4 μg/mL | Cc1ccc(OCc2ccc3c(c2)CCN(C)C3)c(-c2cccc(-c3sc(C(=O)O)cc3C)n2)c1 [Compound 37, 4-methyl-5-{6-[5-methyl-2-(2-methyl-1,2,3,4-tetrahydro-isoquinolin-6-ylmethoxy)phenyl]pyridin-2-yl}-thiophene-2-carboxylic acid] |
| 7.15 | > 60 |  | >60 μg/mL | Cc1ccc(OCc2ccc3c(c2)CCN(Cc2cncn2C)C3)c(-c2cccc(-n3ncc(C(=O)O)c3C(F)(F)F)n2)c1 [Compound 30] |
| 7.36 | > 63 |  | >63 μg/mL | Cc1cccc(-c2cccc(-n3cnc(C(=O)O)c3C)n2)c1OCc1ccc2c(c1C)CCN(C1CCOC1)C2 (stereo not shown) [Compound 55] |
| 7.51 | > 65 |  | >65 μg/mL | Cc1cccc(-c2cccc(-n3cnc(C(=O)O)c3C)n2)c1OCc1ccc2c(c1C)CCN(Cc1ccccn1)C2 [Compound 56] |
| 7.57 | > 66 | >68 | >66 μg/mL and >68 μg/mL | Cc1cccc(-c2cccc(-c3ncc(C(=O)O)n3C)n2)c1OCc1ccc2c(c1)CCN(C1CCC(F)(F)CC1)C2 [Compound 74] |
| 7.92 | 10.8 (≈ 17.5 µM) |  | 15.9 μg/mL | CCn1cc(CN2CCc3cc(COc4ccc(C)cc4-c4cccc(-n5ncc(C(=O)O)c5C(F)(F)F)n4)ccc3C2)cn1 [Compound 32] |
